Values quoted from earlier work as cited in PMC2931793 (Journal of neuroscience methods, 2008).

System: IDE
Details: ref Song et al., 2001

## Abz-GGFLRKGVQ-EDDnp
  Vmax of IDE-mediated cleavage: ~ 0.2 μmol min^−1 mg^−1

## β-endorphin
  Vmax of IDE-mediated cleavage: 2.6 µmol/min/mg
